In assay [1] the target is recombinant human DPPIV (Homo sapiens (Human), UniProt P27487). As to the kind of experiment: In vitro inhibition assay, dipeptidyl peptidase IV. It is filed as biochemical. Conditions: Gly-Pro-AMC substrate, read-out: DPP4.
The target in assay [2] is recombinant human DPPII (Homo sapiens (Human), UniProt Q9UHL4). As to the kind of experiment: In vitro inhibition assay, dipeptidyl peptidase II. It is filed as biochemical. Conditions: Lys-Pro-AMC substrate, read-out: DPP2.
Assay [3] addresses recombinant human DPP8 (Homo sapiens (Human), UniProt Q6V1X1). Briefly: In vitro inhibition assay, dipeptidyl peptidase 8. It is filed as biochemical. The settings on record: recombinant human DPP8, Gly-Pro-AMC substrate.
Assay [4] addresses recombinant human DPP9 (Homo sapiens (Human), UniProt Q86TI2). Briefly: In vitro inhibition assay, dipeptidyl peptidase 9. It is filed as biochemical. The settings on record: recombinant human DPP9, Gly-Pro-AMC substrate.
Assay [5] concerns the target recombinant human FAP (Homo sapiens (Human), UniProt Q12884). As to the kind of experiment: In vitro inhibition assay, fibroblast activation protein. It is filed as biochemical. The settings on record: Z-Gly-Pro-AMC substrate.
Assay [6] has as its target recombinant human PREP (Homo sapiens (Human), UniProt P48147). As to the kind of experiment: In vitro inhibition assay, prolyl oligopeptidase. It is filed as biochemical. Conditions: Z-Gly-Pro-AMC substrate.
Assay [7] relates to MB49 murine urothelial carcinoma. Briefly: MB49 efficacy studies. It counts as in vivo, mouse.
For assay [8] the following is noted: cited from earlier work.

Each structure is given as a SMILES string. Values joined by “and” are separate entries in the source; they are usually repeats but may differ in a detail not shown here. Identical values can stand only once.

Chain of recombinant human FAP (Q12884 whole entry): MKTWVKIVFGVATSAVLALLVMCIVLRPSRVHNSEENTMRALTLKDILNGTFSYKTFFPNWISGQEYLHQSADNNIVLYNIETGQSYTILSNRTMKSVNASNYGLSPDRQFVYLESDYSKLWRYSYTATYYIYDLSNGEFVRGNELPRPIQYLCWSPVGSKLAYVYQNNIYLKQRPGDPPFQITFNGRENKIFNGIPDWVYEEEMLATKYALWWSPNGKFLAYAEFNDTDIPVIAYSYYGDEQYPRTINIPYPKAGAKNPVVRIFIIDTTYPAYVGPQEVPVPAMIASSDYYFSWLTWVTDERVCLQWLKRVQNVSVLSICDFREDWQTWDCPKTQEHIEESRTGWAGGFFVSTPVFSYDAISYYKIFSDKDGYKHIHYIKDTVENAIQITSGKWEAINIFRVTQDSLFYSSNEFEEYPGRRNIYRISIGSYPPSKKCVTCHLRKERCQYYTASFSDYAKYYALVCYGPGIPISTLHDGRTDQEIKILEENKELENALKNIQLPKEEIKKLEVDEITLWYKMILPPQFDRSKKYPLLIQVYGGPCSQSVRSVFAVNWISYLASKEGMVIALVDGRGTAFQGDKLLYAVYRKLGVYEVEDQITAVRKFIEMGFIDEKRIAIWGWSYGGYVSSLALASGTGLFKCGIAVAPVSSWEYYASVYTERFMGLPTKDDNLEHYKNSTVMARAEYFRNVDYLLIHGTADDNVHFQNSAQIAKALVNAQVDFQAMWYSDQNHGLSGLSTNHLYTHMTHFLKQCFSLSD
Chain of recombinant human DPP8 (Q6V1X1 whole entry): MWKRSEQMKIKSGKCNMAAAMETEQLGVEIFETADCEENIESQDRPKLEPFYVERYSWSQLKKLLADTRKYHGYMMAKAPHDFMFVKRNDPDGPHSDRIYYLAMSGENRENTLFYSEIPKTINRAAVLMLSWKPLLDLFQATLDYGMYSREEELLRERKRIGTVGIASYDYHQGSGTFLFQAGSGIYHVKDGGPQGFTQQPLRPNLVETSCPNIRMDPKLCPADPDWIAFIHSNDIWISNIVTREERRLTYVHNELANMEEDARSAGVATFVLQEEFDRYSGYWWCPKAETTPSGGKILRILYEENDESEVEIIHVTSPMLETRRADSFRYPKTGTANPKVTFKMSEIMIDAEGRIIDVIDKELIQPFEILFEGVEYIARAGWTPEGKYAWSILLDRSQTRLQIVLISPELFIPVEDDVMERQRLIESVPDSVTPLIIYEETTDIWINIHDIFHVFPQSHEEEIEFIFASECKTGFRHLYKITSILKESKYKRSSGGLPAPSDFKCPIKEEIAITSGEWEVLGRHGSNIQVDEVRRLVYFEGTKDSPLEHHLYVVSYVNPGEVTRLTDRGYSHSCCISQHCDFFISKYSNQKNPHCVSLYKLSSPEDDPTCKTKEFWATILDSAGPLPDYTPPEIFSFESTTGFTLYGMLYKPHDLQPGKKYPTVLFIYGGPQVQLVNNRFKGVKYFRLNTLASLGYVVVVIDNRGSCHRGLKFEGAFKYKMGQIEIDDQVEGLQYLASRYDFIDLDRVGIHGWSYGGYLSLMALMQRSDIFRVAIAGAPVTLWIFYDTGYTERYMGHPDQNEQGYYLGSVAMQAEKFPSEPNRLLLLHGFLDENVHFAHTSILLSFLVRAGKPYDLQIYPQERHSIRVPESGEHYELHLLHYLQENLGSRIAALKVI
Chain of recombinant human DPPIV (P27487 whole entry): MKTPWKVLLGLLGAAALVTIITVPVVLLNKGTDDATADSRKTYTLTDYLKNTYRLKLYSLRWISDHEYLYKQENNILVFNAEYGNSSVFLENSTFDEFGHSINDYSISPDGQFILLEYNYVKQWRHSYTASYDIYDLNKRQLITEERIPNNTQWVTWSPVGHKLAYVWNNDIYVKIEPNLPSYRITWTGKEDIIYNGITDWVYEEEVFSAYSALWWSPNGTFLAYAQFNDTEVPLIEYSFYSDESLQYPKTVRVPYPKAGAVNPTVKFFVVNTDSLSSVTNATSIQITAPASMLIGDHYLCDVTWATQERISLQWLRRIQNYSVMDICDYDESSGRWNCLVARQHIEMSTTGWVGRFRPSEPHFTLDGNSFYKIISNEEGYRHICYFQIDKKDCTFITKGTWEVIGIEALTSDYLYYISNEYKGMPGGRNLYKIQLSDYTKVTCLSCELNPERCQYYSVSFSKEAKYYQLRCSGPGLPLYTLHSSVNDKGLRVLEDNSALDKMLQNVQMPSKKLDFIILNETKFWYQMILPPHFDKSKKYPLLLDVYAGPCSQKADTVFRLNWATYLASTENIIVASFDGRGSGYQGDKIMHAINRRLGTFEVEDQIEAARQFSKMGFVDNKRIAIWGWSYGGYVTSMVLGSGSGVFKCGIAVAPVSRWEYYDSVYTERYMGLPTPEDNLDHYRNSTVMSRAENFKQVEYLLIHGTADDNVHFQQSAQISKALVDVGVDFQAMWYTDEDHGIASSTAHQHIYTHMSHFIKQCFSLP
Chain of recombinant human DPP9 (Q86TI2 whole entry): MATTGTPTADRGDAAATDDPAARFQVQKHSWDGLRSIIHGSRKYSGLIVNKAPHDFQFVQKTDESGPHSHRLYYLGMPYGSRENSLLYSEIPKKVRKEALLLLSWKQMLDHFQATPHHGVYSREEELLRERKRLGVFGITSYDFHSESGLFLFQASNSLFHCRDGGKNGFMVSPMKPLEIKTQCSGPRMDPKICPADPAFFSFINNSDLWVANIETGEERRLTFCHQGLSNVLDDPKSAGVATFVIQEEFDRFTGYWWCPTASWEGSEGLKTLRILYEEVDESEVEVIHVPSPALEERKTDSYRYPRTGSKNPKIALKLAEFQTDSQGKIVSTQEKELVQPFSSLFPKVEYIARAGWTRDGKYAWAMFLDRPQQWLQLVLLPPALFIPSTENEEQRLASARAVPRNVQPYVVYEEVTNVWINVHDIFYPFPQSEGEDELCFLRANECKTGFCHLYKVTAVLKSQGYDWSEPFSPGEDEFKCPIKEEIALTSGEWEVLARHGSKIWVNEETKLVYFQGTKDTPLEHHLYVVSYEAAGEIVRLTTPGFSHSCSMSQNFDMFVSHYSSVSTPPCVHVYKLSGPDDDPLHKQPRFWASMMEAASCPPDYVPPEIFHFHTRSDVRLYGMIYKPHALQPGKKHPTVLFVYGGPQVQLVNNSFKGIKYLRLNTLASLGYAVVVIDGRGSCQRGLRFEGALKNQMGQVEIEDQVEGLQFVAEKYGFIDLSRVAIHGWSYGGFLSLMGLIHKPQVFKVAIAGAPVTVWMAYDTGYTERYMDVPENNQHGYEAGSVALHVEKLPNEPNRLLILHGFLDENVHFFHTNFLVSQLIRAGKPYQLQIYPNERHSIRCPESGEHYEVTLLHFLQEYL
Chain of recombinant human PREP (P48147 whole entry): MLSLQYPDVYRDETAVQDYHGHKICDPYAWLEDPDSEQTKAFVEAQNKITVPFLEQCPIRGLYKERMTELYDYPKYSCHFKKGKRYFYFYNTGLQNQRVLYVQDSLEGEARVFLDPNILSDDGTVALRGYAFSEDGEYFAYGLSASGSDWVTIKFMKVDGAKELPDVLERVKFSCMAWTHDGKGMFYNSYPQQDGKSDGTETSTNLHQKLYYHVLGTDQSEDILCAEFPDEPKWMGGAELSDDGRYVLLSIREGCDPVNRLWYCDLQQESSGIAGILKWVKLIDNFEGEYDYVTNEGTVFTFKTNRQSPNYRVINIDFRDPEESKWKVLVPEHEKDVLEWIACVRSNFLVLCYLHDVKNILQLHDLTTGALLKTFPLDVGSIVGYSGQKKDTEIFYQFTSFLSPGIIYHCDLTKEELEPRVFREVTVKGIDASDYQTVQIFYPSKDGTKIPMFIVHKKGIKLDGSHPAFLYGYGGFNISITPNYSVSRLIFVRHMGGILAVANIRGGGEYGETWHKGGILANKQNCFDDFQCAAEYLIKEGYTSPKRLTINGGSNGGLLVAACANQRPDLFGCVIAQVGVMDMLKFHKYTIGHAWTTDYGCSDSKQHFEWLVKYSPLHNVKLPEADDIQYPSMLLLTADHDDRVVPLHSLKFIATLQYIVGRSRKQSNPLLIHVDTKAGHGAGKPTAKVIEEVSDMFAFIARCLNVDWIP

`N[C@@H](Cc1ccccc1)C(=O)N1CCC[C@H]1B(O)O` [compound 1336]: the IC50 in assay [1] is 0.002 µM.

Take `C[C@H](N)C(=O)N1CCC[C@H]1B(O)O` [compound 1129]: the IC50 in assay [2] is 0.0014 µM and 0.001 µM.

For `NC1(C(=O)N2CCSC2)CCNCC1` [compound 5554], the IC50 in assay [3] is > 100 µM; in assay [4], > 100 µM; in assay [1] it was > 100 µM; in assay [2], 36.5 µM; in assay [5], > 100 µM; in assay [6] it was 25.1 µM.

As for `C[C@H](N)C(=S)N1CCC[C@H]1B(O)O` [compound 2243], the IC50 in assay [5] worked out at 0.13 µM.

Regarding `CC[C@@H](C)C(N)C(=O)N1Cc2ccc(F)cc2C1` (some centres unmarked) [compound 5291, reference compound], the IC50 in assay [5] and in assay [6] was > 100 µM in each case.

Take `CC(C)(C)[C@H](N)C(=O)N1Cc2ccc(F)cc2C1` [compound 5322]: the IC50 is 36.8 µM in assay [2], > 100 µM in assay [5] and > 100 µM in assay [6].

As to `CC(C)(C)[C@H](N)C(=O)N1CCC[C@H]1C#N` [compound 9987], the IC50 in assay [2] and in assay [6] was > 100 µM in each case.

For the molecule `N[C@H](C(=O)N1CCC[C@H]1B(O)O)C1CCCCC1` [compound 1797], the results for the IC50 in assay [1] and in assay [2] were 0.0012 µM and 0.0021 µM, respectively.

For the molecule `CC[C@@H](C)[C@H](N)C(=O)N1Cc2ccccc2[C@H]1B(O)O` [1049 C], the figures for the IC50 in assay [2] and in assay [6] were 0.095 µM and > 100 µM, respectively.

As for `CC(C)[C@H](N)C(=O)N1C[C@H](O)C[C@H]1B(O)O` [compound 4312], the IC50 is 0.002 µM in assay [1] and 6.4 µM in assay [2].

Turning to `CC(C)[C@H](N)C(=O)N1CCC[C@H]1B(O)O` [compound 2054, Valine-boroProline], in assay [7] (20 microgram dose of Val-boroPro, individual animal curves), the “tumor regression in combination with celecoxib” value was “facilitated the achievement of tumor regression”. Besides, the “antitumor activity in combination with celecoxib” value in assay [7] (MB49 tumor bearing mice, Val-boroPro + celecoxib) is “increased the antitumor activity of Val-boroPro markedly (statistically significantly) and in a dose-dependent manner”. In addition, the “efficacy in phase II trials” value in assay [8] (in combination with standard cytotoxic chemotherapy) is “did not meet the endpoints for efficacy”. Further, in assay [8] (phase I, talabostat and rituximab, rituximab-resistant lymphoma), the partial response was 3 patients. Further, the “patients with improvement in grade 3 neutropenia” value in assay [8] (phase I, thirteen patients, concomitant immunosuppressive chemotherapy) is “five”.

For the molecule `CN(C)C(=O)C[C@H](N)C(=O)N1Cc2ccc(F)cc2C1` [compound 5317], the IC50 was 54.8 µM in assay [1], 22.1 µM in assay [2], > 100 µM in assay [5] and > 100 µM in assay [6].

As to `CC(C)[C@H](N)C(=O)N1C[C@@H](O)C[C@H]1B(O)O` [4312 S], the IC50 in assay [1] was 0.009 µM; in assay [2], 0.61 µM.

On to `NC1(C(=O)N2Cc3ccccc3C2)CCNCC1` [compound 5553], for which the IC50 in assay [3] is > 100 µM; in assay [1], > 100 µM; in assay [2] it was 0.978 µM; in assay [5], > 100 µM.

Turning to `CC[C@H](C)[C@H](N)C(=O)N1CCC[C@H]1B(O)O` [compound 4316], the IC50 in assay [1] turned out to be 0.0012 µM; in assay [2], 0.0078 µM.

`N[C@H](C(=O)N1Cc2ccc(F)cc2C1)C1CCCC1` [compound 5333]: the figures for the IC50 in assay [2] and in assay [5] were 26.5 µM and > 100 µM, respectively.

Take `N[C@H](C(=O)N1Cc2ccc(F)cc2C1)C1CCCCC1` [compound 5311]: the IC50 was 81 µM in assay [3]; > 100 µM in assay [1]; 63.8 µM in assay [2]; > 100 µM in assay [5]; > 100 µM in assay [6].

As for `CC(C)[C@H](N)C(=O)N1CCC[C@H]1C(=O)CO` [compound 5298], the IC50 in assay [1] was 0.0045 µM; in assay [2] it was 4.18 µM; in assay [5], > 100 µM; in assay [6], > 100 µM.

As for `Cc1ccc(-c2cc(C(F)(F)F)nn2-c2ccc(S(N)(=O)=O)cc2)cc1` [celecoxib], in assay [7] (celecoxib alone, various concentrations, MB49 tumor bearing mice), the “tumor growth rates compared to control (vehicle)” value is “no observed differences in tumor growth rates compared to control”.

With `O=C([C@@H]1CCCCN1)N1Cc2ccc(F)cc2C1` [compound 5323], the IC50 is 0.862 µM in assay [3]; 0.305 µM in assay [4]; 60.3 µM in assay [1]; > 100 µM in assay [2]; > 100 µM in assay [5]; > 100 µM in assay [6].

For the molecule `CC[C@@H](C)[C@H](N)C(=O)N1CCC[C@H]1B(O)O` [compound 4317], the IC50 came out at 0.002 µM in assay [1] and 0.012 µM in assay [2].

Take `O=C([C@@H]1CCCN1)N1CCC[C@H]1B(O)O` [compound 1181]: the IC50 is 0.0013 µM in assay [1] and 0.054 µM in assay [2].

With `NC(=O)C[C@H](N)C(=O)N1Cc2ccc(F)cc2C1` [compound 5316], the IC50 in assay [3] is 4.11 µM; in assay [1] it was > 100 µM; in assay [2], 92.2 µM; in assay [5], > 100 µM; in assay [6], > 100 µM.

Take `CC[C@H](N)C(=O)N1CCC[C@H]1B(O)O` [compound 5466]: the IC50 in assay [2] is 0.0029 µM.

As for `NCCCC[C@H](N)C(=O)N1CCC[C@H]1B(O)O` [compound 1700], in assay [1], the IC50 was found to be 0.0013 µM.

As for `NC1(C(=O)N2Cc3ccc(F)cc3C2)CCNCC1` [compound 5552], the IC50 is > 100 µM in assay [3], > 100 µM in assay [4], > 100 µM in assay [2] and 41.1 µM in assay [5].

On to `N[C@H](C(=O)N1Cc2ccccc2C1)C1CCCCC1` [3360 C], for which the IC50 in assay [1] was found to be 1.38 µM.

On to `CN(CB(O)O)C(=O)[C@@H](N)CCC(=O)O` [compound 2408], for which the IC50 turned out to be 1.7 µM in assay [2] and 11 µM in assay [5].

Turning to `NCCCC[C@H](N)C(=O)N1Cc2ccc(F)cc2C1` [compound 5325], the IC50 in assay [3] was 0.123 µM; in assay [1], > 100 µM; in assay [2] it was 0.842 µM; in assay [5], > 100 µM; in assay [6], > 100 µM.

On to `N[C@@H](CCC(=O)O)C(=O)N1CCC[C@H]1B(O)O` [compound 8120], for which the IC50 in assay [1] turned out to be 0.0011 µM; in assay [2], 0.012 µM.

Turning to `CC(C)[C@H](N)C(=O)N1Cc2ccc(F)cc2C1` [compound 5321], the IC50 in assay [2] is 44.9 µM; in assay [5] it was > 100 µM; in assay [6] it was > 100 µM.

Regarding `CC(C)C[C@H](N)C(=O)N1CCC[C@H]1B(O)O` [compound 1454], the IC50 in assay [1] was 0.0016 µM; in assay [2] it was 0.001 µM; in assay [5], 0.15 µM.

On to `CC(C)[C@@H](C(=O)N1CCC[C@H]1B(O)O)N(C)C` [2504 C], for which, in assay [2], the IC50 came to 10 µM.

Source of the values: patent US11559537B2, “Combination therapies using caspase-1 dependent anticancer agents and PGE2 antagonists” (Trustees of Tufts College, priority 2017, dated 2023).
